Measured values published in US12377087B2, “Compounds for the treatment of cancer” (UNIVERSITY OF LOUISVILLE RESEARCH FOUNDATION, INC., priority 2015, dated 2025).

What was measured:
[1] = system: H460 cells; assay: proliferation / viable cell count (trypan blue) of H460 cells; type: cell-based, human
Procedure: Cell Viability: Cells were incubated in 20% trypan blue (Sigma) for 5 minutes. Cells excluding trypan blue were counted using a standard hemocytometer (Hausser Scientific) to determine total numbers of viable cells. Data are expressed as mean±SD of three experiments. Proliferation Assays: H460 non-small cell lung cancer cells were plated in 24 well plates and exposed to increasing concentrations of the indicated inhibitors of Formula IV (FBR1-02 corresponds to [drawing 47] DMSO was used as vehicle. After 24, 48 and 72 hours of exposure, cells were detached and viable cells were counted by Trypan blue exclusion (representative counts at 48 hours shown).

[2] = system: H460 cells; assay: apoptosis by flow cytometry (annexin V / propidium iodide) in H460 cells; type: cell-based, human; details: H460, 10 μM 5MPN
Procedure: Flow Cytometry: To measure apoptosis, cells were stained with annexin V and propidium iodide and examined as previously described. […] DMSO used as vehicle. For cell cycle experiments, cells were detached, washed with cold PBS and fixed in 70% ethanol (4° C. 30 minutes). The cells then were pelleted by centrifugation, resuspended in PBS containing PI and RNase A, incubated at 37° C. in the dark for 30 minutes and analyzed by flow cytometry (BD FACSCalibur). Data were analyzed using FlowJo software (TREE STAR Inc.). Results were calculated as the mean±SD of three experiments.

[3] = pharmacokinetic profile of 5MPN after IV and oral administration; type: in vivo; details: C57BL/6 mice
Procedure: In vivo Studies. The pharmacokinetic profile was determined in female C57BL/6 mice following IV and oral administration of 5MPN. Using only female mice lowered the animal numbers required for meaningful results without issues of potential gender differences in exposure. Eight time points (n=3/time point) were used to determine PK parameters calculated using WinNonLin v5.0. Plasma samples were extracted using acetonitrile and analyzed by LC/MS-MS using a PhenomexSynergi Polar-RP 4 micron 50×2.0 mm column eluted with a biphasic mobile phase (0.5% formic acid in acetonitrile and water).

[4] = system: Lewis lung carcinomas; assay: Lewis lung carcinoma tumor growth in mice; type: in vivo, C57BL/6 mice
[5] = system: H460 human lung adenocarcinoma xenografts; assay: H460 xenograft tumor growth in athymic mice; type: in vivo, BALB/c athymic mice; details: 120 mg/kg oral daily
[6] = system: LLC xenografts; assay: Ki67 immunohistochemistry of LLC xenografts; type: in vivo, C57BL/6 mice; details: 120 mg/kg by gavage daily, two weeks
Procedure: Immunohistochemistry: Formalin-fixed, paraffin-embedded tissue sections were processed as previously described then incubated with anti-Ki-67 primary antibody (Abeam) overnight, followed by HRP-linked goat anti-rabbit secondary antibody (1:300. Pierce). Sections were developed with 3,3′-diaminobenzidine tetrahydrochloride, counterstained, scanned and analyzed with the positive pixel count algorithm as previously described. Data are depicted as % positive pixels/total pixels±SD.

## COc1cccc2c(NCCCCCO[N+](=O)[O-])ccnc12 [5MPN, 5-[(8-methoxyquinolin-4-yl)amino]pentyl nitrate]
[1]; H460, 24-72 hours
  cell proliferation: reduction in cell proliferation
[1]; H460, 48 hours
  growth, viable cells: dose-dependent reduction in growth
[1]; H460 transfected with PFKFB4, 10 μM 5MPN, 24 hours
  anti-proliferative effect with over-expression of PFKFB4: protected
[2]
  apoptotic cells: minimal increase
[3]
  oral bioavailability: High Oral Bioavailability
[3]; IV and oral
  pharmacokinetics of intravenous and oral administration: both routes were adequate to achieve potentially therapeutic concentrations
[4]; LLC-bearing C57BL/6 mice, 120 mg/kg oral daily
  body weight: without affecting body weight
[4]; syngeneic C57BL/6 mice, 120 mg/kg daily by gavage, two weeks
  tumor growth of Lewis lung carcinomas: suppressed the growth
[5]; H460-bearing athymic mice
  body weight: without affecting body weight
[5]; athymic mice
  tumor growth of H460 xenografts: suppressed the growth
[6]
  Ki67-positive cells in LLC xenografts: reduction in Ki67-positive cells
